Like-named read-outs stand apart in the source and are kept apart here.
Legend:
[1] = tested on: AP1, P53, Nrf2, and NF-κB
CYP3A4 [2] = settings: cited from earlier work
CYP3A5 = tested on: CYP3A5; set-up: method as in doi:10.1016/j.ccr.2020.213600; settings: cited from earlier work
CYP3A = tested on: CYP3A; set-up: method as in PMID 30778299; settings: cited from earlier work
AP1 = settings: 24 h
[3] = tested on: Hepa-ToxMOA cell lines (HepG2); settings: four Hepa-ToxMOA cell lines, increasing CPPA concentration (6.25, 12.5, 25 μM), 1% S9 treatment, 24 h
CYP2C19 = tested on: CYP2C19; set-up: method as in PMID 25815638; settings: causing mitochondrial dysfunction and hepatotoxicity; cited from earlier work
diabetic mice = tested on: diabetic mice; set-up: method as in PMID 34678724; settings: cited from earlier work
liver fibrosis = tested on: liver fibrosis; set-up: method as in PMID 30502394; settings: cited from earlier work
[4] = tested on: diabetic C57BL/KsJ-db/db mice; set-up: method as in PMID 29554661; settings: cited from earlier work
CYP3A4 [5] = tested on: CYP3A4; set-up: method as in PMID 20959500; settings: via the activation of NR1I2; cited from earlier work

CC(=O)O[C@H]1C[C@]2(O)[C@@H]3CC[C@@H]4C[C@@H](O)CC[C@]4(C)[C@H]3CC[C@]2(C)[C@H]1c1ccc(=O)oc1 [Bufotalin]
active (increased GFP intensity) for all Hepa-ToxMOA cell lines (Fig. 3d) [1]: commonly active | sum of activity scores compared between metabolic activation and non-metabolic conditions [1]: more active without metabolic activation | Toxic (natural products exceeding Score 3, Venn diagram list Fig. 3c) ([1]; human): S9- only | substrate of CYP3A4 (CYP3A4 [2]): substrates | substrate of CYP3A5 (CYP3A5): substrates | metabolism by CYP3A (CYP3A): metabolized by CYP3A to 5ß-hydroxy-bufotalin

O=P1(N(CCCl)CCCl)NCCCO1 (centres unmarked) [CPPA, cyclophosphamide, reference compound]
GFP intensity (AP1; AP1 cell line, CPPA 6.25, 12.5, 25 μM, S9 fraction (Fig. 2b)): increased in a dose-dependent manner | GFP intensity (P53): tendency to increase, although not in a dose-dependent manner | GFP intensity (Nrf2): increased in a dose-dependent manner | GFP intensity (NF-κB; NF-κB cell line, CPPA 6.25, 12.5, 25 μM, 24 h, S9 fraction (Fig. 2b)): increased in a dose-dependent manner | GFP intensity with S9 fractions compared to without S9 fractions [1]: higher | cell viability [3]: significantly reduced

COc1cc2c3c(c1OC)-c1ccccc1C[C@H]3NCC2 [N-nornuciferine]
GFP expression, P53 cell line (P53): no change | increase of GFP expression, P53 cell line (P53): up to 1.5 fold | GFP expression, Nrf2 cell line (Nrf2): induced GFP expression | GFP expression, NF-κB cell line (NF-κB): increased GFP expression | Toxic (natural products exceeding Score 3, Venn diagram list Fig. 3c) [1]: Common | active (increased GFP intensity) for all Hepa-ToxMOA cell lines (Fig. 3d) [1]: commonly active | sum of activity scores compared between metabolic activation and non-metabolic conditions [1]: consistently active regardless of metabolic activation

O=C(O)c1cc(O)c2c(c1)C(=O)c1cccc(O)c1C2=O [Rhein]
metabolic activation by CYP2C19 (CYP2C19): metabolically activated by CYP2C19

CC(C)=CCc1c(O)cc2oc3cc(O)c(O)c(CC=C(C)C)c3c(=O)c2c1O [Gamma-mangostin]
fasting blood glucose levels (diabetic mice): attenuate fasting blood glucose levels | effect on liver fibrosis (liver fibrosis): alleviate liver fibrosis

CC(C)=CC[C@H](O)C1=CC(=O)c2c(O)ccc(O)c2C1=O [Alkannin]
sum of activity scores compared between metabolic activation and non-metabolic conditions [1]: more active without metabolic activation | toxicity in Hepa-ToxMOA cell lines under metabolic activity conditions [1]: reduced toxicity | Toxic (natural products exceeding Score 3, Venn diagram list Fig. 3c) ([1]; human): S9- only | effect on liver injury [4]: hepatoprotective effects

CC(=O)O[C@H]1[C@H]2O[C@]23[C@@H]2CC[C@@H]4C[C@@H](O)CC[C@]4(C)[C@H]2CC[C@]3(C)[C@H]1c1ccc(=O)oc1 [Cinobufagin]
GFP expression, P53 cell line (P53): increased | Toxic (natural products exceeding Score 3, Venn diagram list Fig. 3c) [1]: Common | active (increased GFP intensity) for all Hepa-ToxMOA cell lines (Fig. 3d) [1]: commonly active | sum of activity scores compared between metabolic activation and non-metabolic conditions [1]: consistently active regardless of metabolic activation | substrate of CYP3A4 (CYP3A4 [2]): substrates | substrate of CYP3A5 (CYP3A5): substrates

CC[C@]1(O)C[C@@H]2CN(CCc3c([nH]c4ccccc34)[C@@](C(=O)OC)(c3cc4c(cc3OC)N(C)[C@H]3[C@@](O)(C(=O)OC)[C@H](OC(C)=O)[C@]5(CC)C=CCN6CC[C@]43[C@@H]65)C2)C1 [vinblastine, reference compound]
induction of CYP3A4 (CYP3A4 [5]): induce CYP3A4 | substrate of CYP3A4 (CYP3A4 [2]): substrate

CC[C@@]1(O)C(=O)OCc2c1cc1n(c2=O)Cc2cc3c(OC)cccc3nc2-1 [9-Methoxycamptothecin]
GFP expression, NF-κB cell line (NF-κB; regardless of metabolic activation (S9- and S9+), 24 h): increased GFP expression

C[C@]12CC[C@H](O)C[C@H]1CC[C@@H]1[C@@H]2[C@H](O)C[C@]2(C)[C@@H](c3ccc(=O)oc3)CC[C@]12O [Gamabufotalin]
GFP expression, P53 cell line (P53): increased | sum of activity scores compared between metabolic activation and non-metabolic conditions [1]: more active without metabolic activation | Toxic (natural products exceeding Score 3, Venn diagram list Fig. 3c) ([1]; human): S9- only

C[C@]12CC[C@H](O)C[C@H]1CC[C@@H]1[C@@H]2CC[C@]2(C)[C@@H](c3ccc(=O)oc3)C[C@H]3O[C@]132 [Bufogenin]
GFP expression, AP1 cell line (AP1; under metabolic activation (S9+, 1% rat liver S9)): did not respond | GFP expression, AP1 cell line (AP1; without metabolic activation (S9-)): specifically induced GFP expression | GFP expression, P53 cell line (P53): increased | Toxic (natural products exceeding Score 3, Venn diagram list Fig. 3c) [1]: Common | active (increased GFP intensity) for all Hepa-ToxMOA cell lines (Fig. 3d) [1]: commonly active | sum of activity scores compared between metabolic activation and non-metabolic conditions [1]: consistently active regardless of metabolic activation
